Source: patent US20220347299A1, “FLUORESCENT SYSTEMS FOR BIOLOGICAL IMAGING AND USES THEREOF” (LIGHTOX LIMITED, priority 2019, published 2022)

Tests used:
Bacillus subtilis [1] = assay: Baclight staining (propidium iodide / Syto 9), widefield imaging, B. subtilis; assay type: cell-based; details: 1 μM, 405 nm, 5 min
Experimental: Samples prepared according to Table 9 were treated with compounds by diluting 10 mM of stock solution in media to make a 100 μM concentration. This solution was then further diluted 1:10 and 1:100 in media to make 10 μM and 1 μM media solutions containing the compound. 50 μl of cell culture were then added to the 100 μM, 10 μM and 1 μM compound-containing media preparations. Following the treatment outlined in Table 9, each of the three bacterial strains were stained using a Baclight™ staining kit containing separate solutions of Syto™ 9 and Propidium Iodide. One extra sample treated with 0.1 μM of each compound was also included in this assay. M. smegmatis, S. epidermis and B. subtilis were stained with propidium iodide to show non-viable cells and with Syto 9 to show all cells. The following staining procedure was used: • 1. 1 ml of each sample was eluted into a well of a 12-well plate; • 2. One half of the 12 well plate was irradiated at approximately 15 mW/cm^2 for 5 mins; • 3. The content of each well was eluted into separate Eppendorfs and centrifuged at 10,000 r.p.m for 3 rains to form a culture pellet; • 4. Media was then removed, and each pellet resuspended in 200 μl of 1× PBS before being centrifuged at 10,000 r.p.m. for 3 mins. • 5. A preparation of Baclight™-staining solution was made using 1 ml 1× PBS, 3 μl propidium iodide and 3 μl Syto™ 9; • 6. […]

[2] = Peak absorption and fluorescence emission wavelengths in solvents; assay type: physicochemical; details: for λem(max)/nm: 100 nM, excitation at peak of absorption; for λabs(max)/nm: 10 μM
Experimental: Peak absorption and fluorescence emission wavelengths of compounds 6, 7, 12, 13, 14, 15, 19, 23, 27, 30 and 34 were measured in a variety of solvents, and the results are shown in Table 1. Absorption measurements were recorded at a concentration of 10 μM, and emission measurements were recorded at a concentration of 100 nM. Emission spectra were recorded with excitation at the peak of absorption (S0→S1).

Bacillus subtilis [3] = assay: Overnight growth curve (OD 600 nm) cytotoxicity assay, B. subtilis; assay type: cell-based
Experimental: A sample of B. subtilis was taken from a plate culture and inoculated into Luria Broth to culture overnight at 37° C. for approximately 16 hours. [table] Samples were incubated in darkness at room temperature for approximately 2 hrs. A black clear bottom Costar™-96 well plate was then filled, with 200 μl of sample in each well Cells were irradiated for 5 minutes at approximately 15 mW/cm^2. The cytotoxicity of the compounds without irradiation was also assessed. The 96 well plate was put into the plate reader and set up to run a growth curve protocol using the following parameters: • Incubation temperature: 37° C. • OD read wavelength 600 nm • 250 cycles, readings every 5 rains • Shaking for 5 s pre-reading This was left to run overnight to obtain kinetic growth curves based on optical density readings.

COC(=O)/C=C/c1ccc(C#Cc2ccc(N(C)CCN)cc2)cc1 [Compound 12, methyl (2E)-3-[4-(2-{4-[(2-aminoethyl)(methyl)amino]phenyl}ethynyl)phenyl]prop-2-enoate]
proportion of non-viable (red) cells following irradiation compared to non-irradiated sample (Bacillus subtilis [1]): the proportion of non-viable (red) cells is increased
λem(max)/nm ([2]; DCM): 551 nm
λabs(max)/nm ([2]; DCM): 371 nm
λem(max)/nm ([2]; Toluene): 482 nm
λabs(max)/nm ([2]; Toluene): 380 nm
growth of B. subtilis, non-irradiated (Bacillus subtilis [3]; 1 μM, not irradiated): slightly less growth than the untreated samples as well as an increased lag time
growth of B. subtilis (Bacillus subtilis [3]; 100 μM and 10 μM, with or without photoactivation): no growth is observed regardless of any photoactivation
cytotoxicity in B. subtilis compared with compound 6 (Bacillus subtilis [3]; 10 and 1 μM): more cytotoxicity
